Measurements published in ChEMBL document CHEMBL1123159, “Quantitative evaluation of the beta 2-adrenoceptor intrinsic activity of N-tert-butylphenylethanolamines” (J Med Chem, 1986).

Experiments:
[1] = target: Beta-2 adrenergic receptor (Bos taurus) (UniProt Q28044); experiment: Beta-2 adrenergic receptor intrinsic symphaticomimetic activity relative to salbutamol; format: functional
[2] = target: Beta-2 adrenergic receptor (Bos taurus) (UniProt Q28044); experiment: Intrinsic activity was measured as concentration of beta-2 adrenergic receptor agonist required for cAMP production; format: functional
[3] = target: Beta-2 adrenergic receptor (Bos taurus, UniProt Q28044); experiment: Apparent binding affinity constant to beta-2 adrenergic receptor determined using [3H]DHA; conditions: read-out: KD app
[4] = log(1/ISA) value of the compound
[5] = target: Beta-2 adrenergic receptor (Bos taurus) (UniProt Q28044); experiment: Concentration required for maximal (95-100%) beta-2 adrenergic receptor occupancy

Sequence of Beta-2 adrenergic receptor (Bos taurus) (Q28044 whole entry, looked up): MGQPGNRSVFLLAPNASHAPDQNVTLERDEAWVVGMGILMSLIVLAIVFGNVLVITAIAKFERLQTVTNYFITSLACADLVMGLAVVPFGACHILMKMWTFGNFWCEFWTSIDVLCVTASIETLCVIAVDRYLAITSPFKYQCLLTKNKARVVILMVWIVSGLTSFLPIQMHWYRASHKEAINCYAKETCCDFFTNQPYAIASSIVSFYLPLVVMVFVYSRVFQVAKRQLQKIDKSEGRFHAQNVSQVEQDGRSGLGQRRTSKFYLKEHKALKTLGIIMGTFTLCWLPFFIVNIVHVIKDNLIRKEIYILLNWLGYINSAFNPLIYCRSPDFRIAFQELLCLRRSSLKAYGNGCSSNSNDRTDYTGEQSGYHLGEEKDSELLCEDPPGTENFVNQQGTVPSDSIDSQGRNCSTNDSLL
Sequence of Beta-2 adrenergic receptor (Q28044 whole entry): as the sequence (Q28044 whole entry, looked up) above

Row | SMILES | ISA [1] | cAMP production (pM min-1 mg-1) [2] | Kd [3] | Log 1/ISA [4] | Concentration [5]
1 | CC(C)(C)NCC(O)c1cc(O)cc(O)c1 (stereo not given) | 0.41 | 50 | – | – | –
2 | CC(C)(C)NCC(O)c1ccc(O)c(O)c1 (stereo not given) [COLTEROL] | 0.68 | 83 | 0.67 µM | 0.17 | –
3 | CC(C)(C)NCC(O)c1ccc(O)c(N)c1 (stereo not given) | 0.68 | 83 | 2.17 µM | 0.17 | –
4 | CC(C)(C)NCC(O)c1ccccc1 (stereo not given) | 0.35 | 43 | 2.94 µM | 0.46 | 100 µM
5 | CNc1cc(C(O)CNC(C)(C)C)ccc1O (stereo not given) | 0.95 | 115 | 0.56 µM | 0.02 | 30 µM
6 | CC(C)(C)NCC(O)c1cc(Cl)c(N)c(Cl)c1 (stereo not given) | 0.53 | 64 | – | – | 1 µM
7 | CC(C)(C)NCC(O)c1ccc(O)cc1 (stereo not given) | 0.8 | 97 | 1.35 µM | 0.1 | 100 µM
8 | CC(C)(C)NCC(O)c1cc(Cl)c(O)c(Cl)c1 (stereo not given) | 0.39 | 47 | 6.47 µM | 0.41 | 300 µM
9 | CC(C)(C)NCC(O)c1ccccc1Cl (stereo not given) [TULOBUTEROL] | 0.5 | 61 | – | 0.3 | 10 µM
10 | CC(C)(C)NCC(O)c1ccc(O)c(C(N)=O)c1 (stereo not given) | 0.2 | 24 | 1.03 µM | 0.7 | 30 µM
11 | CC(C)(C)NCC(O)c1ccc(O)c(CO)c1 (stereo not given) | 1 | 122 | – | – | 30 µM
